For this experiment, the target named is Alpha-glucosidase (Saccharomyces cerevisiae S288c, UniProt P53341+P38158+P07265). The experiment is described as follows: Inhibition of Saccharomyces cerevisiae alpha-glucosidase using nitrophenol-alpha-D-glucopyranoside (pNPG) as substrate incubated for 15 mins. In kind it is protein assay.

Turning to `Clc1ccccc1/C=N/Nc1nnc2n1N=C(c1ccccc1)CS2`, the IC50 came out at 41.83 µM. This counts as double-digit micromolar.

In the case of `Fc1ccc(/C=N/Nc2nnc3n2N=C(c2ccccc2)CS3)cc1`, the concentration for half-maximal inhibition (IC50) is 50.24 µM. This IC50 and that of the compound before are within 1.5-fold of each other.

For orientation: IC50 means the point on the concentration scale where inhibition reaches its midpoint. A high value points to weaker potency in that assay.
